Source: DBAASP
Converted amounts (≈) assume the structure as drawn. Values belong to the molecule of their own block, whether it stands above or below them.

Assays:
Test in all cases: ≥ marks a high value that may be exact or a test limit, other limits are often not marked, values filed in µg/mL are converted to µM
[1] = test system: Bacillus subtilis IFO 3143
[2] = test system: Escherichia coli IFO 12734
[3] = test system: Pseudomonas aeruginosa IFO 12582
[4] = test system: Staphylococcus aureus IFO 12732
[5] = test system: Bacillus megaterium KCTC 1096
[6] = test system: Bacillus subtilis KCTC 1918
[7] = test system: Escherichia coli KCTC 1682
Proteus vulgaris = test system: Proteus vulgaris
[8] = test system: Pseudomonas aeruginosa KCTC 1637
[9] = test system: Staphylococcus aureus KCTC 1621
[10] = test system: Salmonella typhimurium KCTC 1926
[11] = test system: Streptococcus pyogenes KCTC 3096
Acinetobacter sp. 301 = test system: Acinetobacter sp. 301
Acinetobacter sp. 312 = test system: Acinetobacter sp. 312
Acinetobacter sp. 322 = test system: Acinetobacter sp. 322
Candida albicans 4615 = test system: Candida albicans 4615
Candida albicans 4748 = test system: Candida albicans 4748
Candida albicans 4762 = test system: Candida albicans 4762
Candida albicans SC5314 = test system: Candida albicans SC5314
Candida albicans = test system: Candida albicans
[12] = test system: Candida glabrata ATCC 15126
Candida krusei ATCC 6258 = test system: Candida krusei ATCC 6258
[13] = test system: Candida parapsilosis ATCC 22019
Candida tropicalis 4345 = test system: Candida tropicalis 4345
Candida tropicalis 4912 = test system: Candida tropicalis 4912
[14] = test system: Candida tropicalis ATCC 13803
Candida tropicalis = test system: Candida tropicalis
[15] = test system: Erwinia amylovora PMV 6076
Escherichia coli 207 = test system: Escherichia coli 207
Escherichia coli 225 = test system: Escherichia coli 225
Escherichia coli 35 = test system: Escherichia coli 35
Escherichia coli 43 = test system: Escherichia coli 43
[16] = test system: Escherichia coli ATCC 25922
[17] = test system: Klebsiella pneumoniae 202
[18] = test system: Klebsiella pneumoniae 305
[19] = test system: Klebsiella pneumoniae 341
[20] = test system: Pseudomonas aeruginosa 302
[21] = test system: Pseudomonas syringae pv. actinidiae Psa3700.1.1
[22] = test system: Pseudomonas syringae pv. syringae EPS 94
[23] = test system: Xanthomonas arboricola pv. pruni CFBP 5563
[24] = test system: Xanthomonas campestris pv. Vesicatoria 2133-2
[25] = test system: Xanthomonas fragariae Xf349-9A

MIC [1]: 3.18 µM (≈ 8 µg/mL)
MIC [2]: 6.37 µM (≈ 16 µg/mL)
MIC [3]: 6.37 µM (≈ 16 µg/mL)
MIC [4]: 6.37 µM (≈ 16 µg/mL)
Compound: CC(C)C[C@H](NC(=O)[C@H](Cc1ccc(O)cc1)NC(=O)[C@H](C)NC(=O)[C@@H](NC(=O)[C@H](CC(C)C)NC(=O)[C@H](C)NC(=O)[C@H](C)NC(=O)[C@H](CCCCN)NC(=O)CNC(=O)[C@@H](NC(=O)[C@H](C)NC(=O)[C@H](CCCCN)NC(=O)CNC(=O)[C@@H](NC(=O)[C@H](C)NC(=O)[C@H](C)NC(=O)[C@H](C)NC(=O)[C@H](CCCCN)NC(=O)[C@H](CCCCN)NC(=O)[C@H](Cc1ccccc1)NC(=O)[C@H](Cc1ccccc1)NC(=O)[C@H](CO)NC(=O)CNC(=O)[C@H](Cc1c[nH]c2ccccc12)NC(=O)CN)C(C)C)C(C)C)[C@@H](C)O)C(=O)O [GWGSFFKKAAAVGKAVGKAALTAYL]

MIC [5]: 0.78 µM (≈ 1.64 µg/mL)
MIC [6]: 0.78 µM (≈ 1.64 µg/mL)
MIC [7]: 3.12 µM (≈ 6.56 µg/mL)
MIC (Proteus vulgaris): 3.12 µM (≈ 6.56 µg/mL)
MIC [8]: 3.12 µM (≈ 6.56 µg/mL)
MIC [9]: 1.56 µM (≈ 3.28 µg/mL)
Compound: CC[C@H](C)[C@H](NC(=O)[C@H](CCCCN)NC(=O)[C@H](CCCCN)NC(=O)[C@H](Cc1ccccc1)NC(=O)[C@H](Cc1c[nH]c2ccccc12)NC(=O)[C@@H](N)CCCCN)C(=O)N1CCC[C@H]1C(=O)N[C@@H](CCCCN)C(=O)N[C@@H](Cc1ccccc1)C(=O)N[C@@H](CC(C)C)C(=O)N[C@@H](Cc1cnc[nH]1)C(=O)N[C@@H](CC(C)C)C(=O)N[C@@H](CC(C)C)C(=O)N[C@@H](CCCCN)C(=O)N[C@@H](CCCCN)C(=O)N[C@@H](Cc1ccccc1)C(N)=O [KWFKKIPKFLHLLKKF]

MIC [6]: 1.56 µM (≈ 3.55 µg/mL)
MIC [7]: 6.25 µM (≈ 14.2 µg/mL)
MIC [8]: 3.12 µM (≈ 7.11 µg/mL)
MIC [10]: 0.78 µM (≈ 1.77 µg/mL)
MIC [9]: 3.12 µM (≈ 7.11 µg/mL)
MIC [11]: 0.78 µM (≈ 1.77 µg/mL)
Compound: CC[C@H](C)[C@H](NC(=O)[C@H](CCCCN)NC(=O)[C@H](CCCCN)NC(=O)[C@H](Cc1ccccc1)NC(=O)[C@H](CC(C)C)NC(=O)[C@H](CCCCN)NC(=O)[C@H](Cc1c[nH]c2ccccc12)NC(=O)[C@@H](N)CCCCN)C(=O)N1CCC[C@H]1C(=O)N[C@@H](CCCCN)C(=O)N[C@@H](Cc1ccccc1)C(=O)N[C@@H](CC(C)C)C(=O)N[C@@H](Cc1cnc[nH]1)C(=O)N[C@@H](CO)C(=O)N[C@@H](C)C(=O)N[C@@H](CCCCN)C(=O)N[C@@H](CCCCN)C(=O)N[C@@H](Cc1ccccc1)C(N)=O [KWKLFKKIPKFLHSAKKF]

MIC (Acinetobacter sp. 301): 2.37 µM (≈ 2.83 µg/mL)
MIC (Acinetobacter sp. 312): 4.75 µM (≈ 5.66 µg/mL)
MIC (Acinetobacter sp. 322): 3.36 µM (≈ 4 µg/mL)
MIC (Candida albicans 4615): ≥ 42 µM
MIC (Candida albicans 4748): 21 µM (≈ 25 µg/mL)
MIC (Candida albicans 4762): ≥ 83.9 µM
MIC (Candida albicans SC5314): 10.5 µM (≈ 12.5 µg/mL)
MIC (Candida albicans): 5.25 µM (≈ 6.25 µg/mL)
MIC [12]: 21 µM (≈ 25 µg/mL)
MIC (Candida krusei ATCC 6258): 21 µM (≈ 25 µg/mL)
MIC [13]: 5.25 µM (≈ 6.25 µg/mL)
MIC (Candida tropicalis 4345): 21 µM (≈ 25 µg/mL)
MIC (Candida tropicalis 4912): 10.5 µM (≈ 12.5 µg/mL)
MIC [14]: 21 µM (≈ 25 µg/mL)
MIC (Candida tropicalis): ≥ 83.9 µM
MIC [15]: ≥ 50 µM
MIC (Escherichia coli 207): 1.68 µM (≈ 2 µg/mL)
MIC (Escherichia coli 225): 0.839 µM (≈ 1 µg/mL)
MIC (Escherichia coli 35): 6.71 µM (≈ 8 µg/mL)
MIC (Escherichia coli 43): 3.36 µM (≈ 4 µg/mL)
MIC [16]: 0.839 µM (≈ 1 µg/mL)
MIC [17]: 6.71 µM (≈ 8 µg/mL)
MIC [18]: 3.36 µM (≈ 4 µg/mL)
MIC [19]: 1.68 µM (≈ 2 µg/mL)
MIC [20]: 6.71 µM (≈ 8 µg/mL)
MIC [21]: ≥ 50 µM
MIC [22]: ≥ 50 µM
MIC [23]: ≥ 50 µM
MIC [24]: ≥ 50 µM
MIC [25]: ≥ 50 µM
Compound: CC(C)C[C@H](NC(=O)[C@H](CCC(N)=O)NC(=O)[C@H](CCCCN)NC(=O)[C@H](CCCN=C(N)N)NC(=O)[C@H](Cc1ccccc1)NC(=O)[C@@H](N)Cc1c[nH]c2ccccc12)C(=O)N[C@@H](CCCCN)C(=O)N[C@@H](Cc1c[nH]c2ccccc12)C(=O)O [WFRKQLKW]
